Experiments:
[1] = tested on: bacteria in secretion from the wound of a dog with a wound infection; experiment: Express determination of bacteria sensitivity, wound secretion of a dog; assay type: cell-based; settings: ampicillin 1 μg/ml in enriched Columbia Agar, 37° C., lawn in control after 4-6 hours
Procedure: Express determination of bacteria sensitivity to ampicillin while inoculating material obtained from an animal (a dog) with a wound infection.
The method was carried out similarly to the way described in example 1.
Material to be investigated: secretion from the wound.
Nutrient medium: Columbia Agar medium enriched with horse serum and sheep red blood cells, vitamins and amino acids. Ampicillin was added to the medium in maximum concentration achievable at the location where the material was taken—1 μg/ml.
Material taken from the wound was plated using a swab on the medium in a Petri dish. Same medium and cultivation conditions (without ampicillin) were used for control purposes.
The culture was incubated at temperature of 37° C.

[2] = tested on: bacteria in urine of a patient suffering from cystitis; assay type: cell-based
[3] = tested on: aerobes in secretion of subgingival space of a patient with a disease of periodontium; experiment: Sensitivity to antibiotics and their mixture, subgingival secretion, aerobic conditions; assay type: cell-based, aerobic bacteria; settings: Columbia Agar, dishes 1-3, 37° C., whole observation period; lawn in control after 4 hours
Excerpt: (§1) Express determination of sensitivity to a mixture of antibiotics, namely gentamicin (mainly affects aerobic bacteria) and metronidazole (active against anaerobic bacteria and microaerophils), while inoculating material obtained from a patient suffering from a disease of periodontium. Material to be investigated: freshly collected secretion of subgingival space. Nutrient medium: Columbia Agar medium enriched with sheep red blood cells and horse serum was used for cultivation in aerobic conditions. Anaerobic microorganisms were detected using Schaedler Agar containing sheep red blood cells and serum. […] were added to the medium: gentamicin (active against a wide range of aerobes) and metronidazole that selectively affects anaerobic bacteria. Medium in dishes 1 and 1a contains gentamicin; medium in dishes 2 and 2a contains metronidazole; medium in dishes 3 and 3a contains gentamicin and metronidazole; dishes 4 and 4a contain only the nutrient medium (control). The secretion of subgingival space was diluted fivefold using isotonic solution of sodium chloride and plated in the amount of 0.05 ml per dish using a spreader. […] The results were analyzed after 4, 8, 12, 20, 24 and 48 hours after the inoculation (anaerobic bacteria are characterized by lengthy growth).

[4] = tested on: anaerobes in secretion of subgingival space of a patient with a disease of periodontium; experiment: Sensitivity to antibiotics and their mixture, subgingival secretion, anaerobic conditions; assay type: cell-based, anaerobic bacteria; settings: Schaedler Agar, dishes 1a-3a, 37° C., after 8 hours
Excerpt: as §1

[5] = tested on: fungi that cause diseases of plants (powdery mildew); experiment: Express determination of sensitivity of plant-disease fungi to antifungal preparations; assay type: cell-based; settings: 30° C., nystatin 0.4 mg/l; for growth in the well with the antifungal preparation: Sabouraud Agar with gentamicin 0.01 mg/l, after 8 hours, propiconazole 1%
Procedure: Express determination of the sensitivity of fungi that cause diseases of plants (powdery mildew) to antifungal preparations.
Material to be investigated: wipe sampling of isotonic solution of sodium chloride taken from affected areas of a leaf of a plant that has indications of fungi growth.
Nutrient medium: Sabouraud Agar medium enriched with mineral components, placed into a plate with six wells. in order to prevent the growth of bacteria, gentamicin was added to the agar in the amount of 0.01 mg/l. The antifungal preparations to be investigated were also added to the medium: 1st well—propiconazole, in final concentration of 1%; 2nd well—nystatin (0.4 mg/l); 3rd well—control without any antifungal preparations.
1.0 ml of isotonic solution a sodium chloride was washed from […] of the affected area. The material was plated using an inoculation loop.
The inoculations were cultivated at 30° C. The results were analyzed after 6, 8, 12, 20, 24 and 48 hours after the inoculation.

Compound: CC1(C)S[C@@H]2[C@H](NC(=O)[C@H](N)c3ccccc3)C(=O)N2[C@H]1C(=O)O [ampicillin]
- bacterial growth in the dish with the antibiotic [1]: No bacterial growth

Compound: CC[C@H]1OC(=O)[C@H](C)[C@@H](O[C@H]2C[C@@](C)(OC)[C@@H](O)[C@H](C)O2)[C@H](C)[C@@H](O[C@@H]2O[C@H](C)C[C@H](N(C)C)[C@H]2O)[C@](C)(O)C[C@@H](C)CN(C)[C@H](C)[C@@H](O)[C@]1(C)O [azithromycin]
- growth of bacteria in the presence of the antibiotic [2]: no growth

Compound: Cc1ncc([N+](=O)[O-])n1CCO [metronidazole]
- microbial growth in aerobic conditions [3]: Microbial growth
- microbial growth in anaerobic conditions [4]: Microbial growth

Compound: C[C@@H]1[C@H](O)[C@@H](C)/C=C/C=C/CC/C=C/C=C/C=C/C=C/C(O[C@H]2O[C@H](C)[C@@H](O)[C@H](N)[C@@H]2O)CC2O[C@](O)(CC(O)C(O)CCC(O)CC(O)CC(O)CC(=O)O[C@H]1C)CC(O)C2C(=O)O (stereo partly drawn) [nystatin]
- growth in the well with the antifungal preparation [5]: growth was observed
- sensitivity of the mold to the preparation [5]: resistant

Compound: CCCC1COC(Cn2cncn2)(c2ccc(Cl)cc2Cl)O1 (stereo not drawn) [propiconazole]
- growth in the well with the antifungal preparation [5]: No growth

Compound: gentamicin
- microbial growth in aerobic conditions [3]: Microbial growth
- microbial growth in anaerobic conditions [4]: Microbial growth
